Test system: PBMC
Assay: Cytokine production of stimulated PBMC (Bead Suspension Assay)
Assay type: cell-based, human
Settings: 24 h
Experimental: PEP005 was provided as a dry powder. A stock solution of 23.55 mM was prepared in DMSO and aliquots were stored at −20° C. An aliquot of the stock solution was thawed on the day of use and stored at room temperature prior to and during dosing. Intermediate dilution steps were carried out using DMEM cell culture medium.
For the isolation of PBMC freshly drawn human blood treated with Li-Heparin as an anti-coagulant was used. Cells were diluted with three volumes of CliniMACS PBS/EDTA Buffer (Miltenyi, Bergisch Gladbach), carefully layered over FicollPaque (Amersham Biosciences, Freiburg) in a conical tube and centrifuged at 400×g for 40 minutes at 20° C. in a swinging-bucket rotor without brake. The upper layer was aspirated, leaving the mononuclear cell layer undisturbed at the interphase. The interphase cells (lymphocytes, monocytes and thrombocytes) were carefully transferred into a new conical tube. The conical tube was filled with CliniMACS PBS/EDTA Buffer and centrifuged at 300×g for 10 minutes at 20° C. The supernatant was completely removed. For removal of platelets the cell pellet was resuspended in 50 ml of Buffer and centrifuged at 200×g for 10 minutes at 20° C. The supernatant was completely removed and the last washing step was repeated. Cells were resuspended in DMEMMedium (Invitrogen, Karlsruhe) and counted in a Neubauer-hemocytometer.
For the stimulation of PBMC 250.000 cells per well were seeded in a 96-well plate. PBMC of three different healthy donors were stimulated with PEP005 in three different concentrations (1, 10 and 100 nM) or LPS 1 μg/ml (Linaris, Wertheim-Bettingen), PMA 10 ng/ml (Sigma, Deisenhofen) and Ionomycin 1 μg/ml (Sigma, Deisenhofen), respectively. Cells were incubated at 37° C. and 5% CO^2 in a humidified atmosphere for 24 h.
In a typical Bead Suspension Assay a cytokine is captured from a supernatant with bead bound antibodies. The cytokine is quantified with a secondary antibody to complete a sandwich immunoassay. Cytokine concentrations are calculated with the help of a standard curve for each cytokine.
The cytokines IL-1β, IL-2, IL-6, IL-8 and TNF-α were quantitatively measured in the supernatant of the PBMC with a BioRad BioPlex System according to the manufacturer's intructions. All samples were measured in duplicates. All units of detected proteins are pg/ml.
To investigate the immunostimulating effects of PEP005, PBMCs from three different healthy donors were exposed for 24 h to PEP005 at concentrations of 1, 10 and 100 nM. The secretion of IL-1β, IL-2, IL-6, IL-8 and TNF-α into the supernatant was quantitatively measured by flow cytometry with the Bead Suspension Assays. The results are depicted in Tables 1.4-1.8.

[1] = PBMC donor three, PEP005 100 nM
[2] = PBMCs from the three donors, 1 nM PEP005

With `C/C=C(/C)C(=O)O[C@H]1C(C)=C[C@]23C(=O)[C@@H](C=C(CO)[C@@H](O)[C@]12O)[C@H]1[C@@H](C[C@H]3C)C1(C)C` [PEP005, ingenol-3-angelate] as the molecule, how does the “elevated IL-6 levels in PBMC supernatant (parenthetical, condition not stated)” value read?
The value was ~9 fold.

What about the IL-1β production (PBMC donor one, PEP005 1 nM) of the same molecule?
Its IL-1β production is 94.49 pg/mL.

And the IL-2 production (PBMC donor one, PEP005 1 nM)?
Its IL-2 production is 82.68 pg/mL.

And the IL-6 production (PBMC donor one, PEP005 1 nM)?
Its IL-6 production is 320.61 pg/mL.

What about the IL-8 production (PBMC donor one, PEP005 1 nM) of the same molecule?
Its IL-8 production is 13652.6 pg/mL.

What about the TNF-α production (PBMC donor one, PEP005 1 nM) of the same molecule?
The TNF-α production was 148.42 pg/mL.

What about the IL-1β production (PBMC donor one, PEP005 10 nM) of the same molecule?
The IL-1β production was 61.62 pg/mL.

And the IL-2 production (PBMC donor one, PEP005 10 nM)?
Its IL-2 production is 60.3 pg/mL.

And the IL-6 production (PBMC donor one, PEP005 10 nM)?
The IL-6 production was 216.09 pg/mL.

And the IL-8 production (PBMC donor one, PEP005 10 nM)?
Its IL-8 production is 9418.94 pg/mL.

What about the TNF-α production (PBMC donor one, PEP005 10 nM) of the same molecule?
The TNF-α production was 76.14 pg/mL.

And the IL-1β production (PBMC donor one, PEP005 100 nM)?
The IL-1β production was 0 pg/mL.

And the IL-2 production (PBMC donor one, PEP005 100 nM)?
Its IL-2 production is 10.56 pg/mL.

What about the IL-6 production (PBMC donor one, PEP005 100 nM) of the same molecule?
Its IL-6 production is 0 pg/mL.

What about the IL-8 production (PBMC donor one, PEP005 100 nM) of the same molecule?
Its IL-8 production is 52.77 pg/mL.

What about the TNF-α production (PBMC donor one, PEP005 100 nM) of the same molecule?
Its TNF-α production is 19.44 pg/mL.

What about the IL-1β production (PBMC donor three, PEP005 1 nM) of the same molecule?
The IL-1β production was 314.73 pg/mL.

And the IL-2 production (PBMC donor three, PEP005 1 nM)?
Its IL-2 production is 54.61 pg/mL.

What about the IL-6 production (PBMC donor three, PEP005 1 nM) of the same molecule?
Its IL-6 production is 131.46 pg/mL.

What about the IL-8 production (PBMC donor three, PEP005 1 nM) of the same molecule?
Its IL-8 production is 28029.68 pg/mL.

And the TNF-α production (PBMC donor three, PEP005 1 nM)?
Its TNF-α production is 130.99 pg/mL.

What about the IL-1β production (PBMC donor three, PEP005 10 nM) of the same molecule?
Its IL-1β production is 173.33 pg/mL.

What about the IL-2 production (PBMC donor three, PEP005 10 nM) of the same molecule?
The IL-2 production was 31.53 pg/mL.

What about the IL-6 production (PBMC donor three, PEP005 10 nM) of the same molecule?
The IL-6 production was 61.66 pg/mL.

What about the IL-8 production (PBMC donor three, PEP005 10 nM) of the same molecule?
Its IL-8 production is 11438.34 pg/mL.

And the TNF-α production (PBMC donor three, PEP005 10 nM)?
Its TNF-α production is 73.48 pg/mL.

What about the IL-1β production [1] of the same molecule?
The IL-1β production was 10.92 pg/mL.

And the IL-2 production [1]?
Its IL-2 production is 2 pg/mL.

And the IL-6 production [1]?
The IL-6 production was 0 pg/mL.

What about the IL-8 production [1] of the same molecule?
Its IL-8 production is 205.36 pg/mL.

And the TNF-α production [1]?
The TNF-α production was 12.93 pg/mL.

And the IL-1β production (PBMC donor two, PEP005 1 nM)?
Its IL-1β production is 125.17 pg/mL.

What about the IL-2 production (PBMC donor two, PEP005 1 nM) of the same molecule?
Its IL-2 production is 17.86 pg/mL.

And the IL-6 production (PBMC donor two, PEP005 1 nM)?
Its IL-6 production is 69.48 pg/mL.

What about the IL-8 production (PBMC donor two, PEP005 1 nM) of the same molecule?
Its IL-8 production is 12148.42 pg/mL.

And the TNF-α production (PBMC donor two, PEP005 1 nM)?
The TNF-α production was 90.72 pg/mL.

What about the IL-1β production (PBMC donor two, PEP005 10 nM) of the same molecule?
The IL-1β production was 98.04 pg/mL.

What about the IL-2 production (PBMC donor two, PEP005 10 nM) of the same molecule?
The IL-2 production was 19.47 pg/mL.

And the IL-6 production (PBMC donor two, PEP005 10 nM)?
Its IL-6 production is 73.97 pg/mL.

What about the IL-8 production (PBMC donor two, PEP005 10 nM) of the same molecule?
Its IL-8 production is 18220.74 pg/mL.

What about the TNF-α production (PBMC donor two, PEP005 10 nM) of the same molecule?
The TNF-α production was 71.6 pg/mL.

And the IL-1β production (PBMC donor two, PEP005 100 nM)?
Its IL-1β production is 11.76 pg/mL.

And the IL-2 production (PBMC donor two, PEP005 100 nM)?
Its IL-2 production is 12.84 pg/mL.

And the IL-6 production (PBMC donor two, PEP005 100 nM)?
The IL-6 production was 95.43 pg/mL.

And the IL-8 production (PBMC donor two, PEP005 100 nM)?
Its IL-8 production is 217.52 pg/mL.

What about the TNF-α production (PBMC donor two, PEP005 100 nM) of the same molecule?
Its TNF-α production is 35.75 pg/mL.

And the “increase of IL-2 levels in the supernatant” value [2]?
The value was 20 to 80 fold.

And the “mean increase of IL-2 levels in the supernatant” value [2]?
Its value is “approximately 50 fold”.

And the “increase of IL-6 levels in PBMC supernatants” value (PEP005 at 1 nM)?
Its value is 4 to 6 fold.

And the “increase of IL-8 levels in the supernatant of PBMCs” value (PEP005 at 1 nM)?
The value was 3- to 5 fold.

What about the “TNF-α levels in supernatants of PBMCs” value (all three donors, PEP005 at 1 nM) of the same molecule?
The value was “approximately 120 nM”.

— patent US20090215884A1, “METHOD FOR WOUND HEALING” (priority 2005, published 2009)
